Data: patent US6835563B1, “Compositions and methods for increasing cholesterol efflux and raising HDL ATP binding cassette transporter protein ABC1” (CV Therapeutics, priority 1999, dated 2004)

Experiments:
[1] = tested on: RAW 264.7 cells; experiment: Apo A-I-mediated cholesterol efflux from cholesterol-loaded RAW 264.7 macrophage cells; conditions: for increase in apoAI-induced cholesterol efflux: 9 cis-retinoic acid 30 ng/ml, 22(R)hydroxycholesterol 5 μg/ml, fenfibrate 3 μg/ml, PGI2 25 nm, PGE1 25 nM
Method: Assay to Measure Lipid Efflux: Apo AI-mediated efflux of cholesterol and, phospholipid was assayed according to the method described in. […] RAW 264.7 cells were cholesterol-loaded through the scavenger receptor by 24-hour incubation with acetylated LDL as described in Smith et al., J. Biol. Chem., 271:30647-30655 (1996). Briefly, RAW 264.7 cells in 24-well dishes were cholesterol-loaded and labeled overnight in 0.5 ml of DMEM supplemented with 50 μl/ml 1M glucose, 10 μl/ml 200 mM glutamine and 2% BSA and with 50 μg/ml acetylated low density lipoprotein (AcLDL) and [^3H]-cholesterol which had been pre-incubated for 30 minutes at 37° C. with AcLDL to yield a final concentration of 0.33 μCi/ml [^3H]-cholesterol. Cells were subsequently washed five times with PBS containing 1% BSA and incubated overnight (16-18 hours) in DMEM/BSA to allow for equilibrium of cholesterol pools. After equilibrium of cholesterol pools, cells were rinsed four times with PBS/BSA and incubated for one hour at 37° C. with DMEM/BSA before the efflux incubations. Efflux medium (DMEM/BSA) containing either albumin alone (control), albumin plus HDL (40 μg protein/ml), or albumin plus apo A-I (10 μg/ml, Biodesign International, Kennebunk, Me.) was added and the cells were incubated for 4, 24, or 48 hours. […] The radioactivity found in the culture medium was measured by scintillation counting after a 15-minute centrifugation at 12,000 g. The radioactivity in the cells was measured by scintillation counting after solubilization in 0.5 ml of 0.2M NaOH (Smith et al., J. Biol. Chem., 271:30647-30655 (1996)) or extraction in hexane:isopropanol (3:2 v/v) as described in Francis, et al., J. Clin. Invest., 96, 78-87 (1995). […] The efflux of cholesterol or phospholipid was expressed as the percentage of tritiated lipid counts in the medium over the total tritiated lipid counts recovered from the cells and medium (cpm medium/cpm (medium+lysate)×100).
Briefly, RAW 264.7 cells suspended at a density of 1.25×10^5 cells/ml were grown in DMEM/10% FBS supplemented with pyruvate. After 24 hours, the medium was removed and replaced with DMEM/BSA plus radiolabeled cholesterol (1 μCi/ml ^3[H]-cholesterol) and 50 μg/ml of acetylated LDL for 24 hours. The cells were then maintained for 24 hours in equilibrium medium consisting of DMEM/BSA plus either apo A-I alone (20 μg/ml), apo A-I and 8-bromo 3′, 5′ cAMP (1 mM) or apo A-I and rolipram (50 μM).

[2] = tested on: ABC1 mRNA; experiment: ABC1 mRNA by RT-PCR in RAW 264.7 cells; format: cell-based, mouse; conditions: single ligand 10 μM, 24 hours, serum-free DMEM/BSA
Method: RT-PCR: Quantitative PCR was carried out using the GeneAmp 5700 Sequence. Detection System (Perkin-Elmer Applied Biosystems, Foster City, Calif.). Briefly, 500 ng of DNase-treated mRNA was reverse transcribed using random hexamer primers at 2.5 μM. Approximately 5% of this reaction was amplified by PCR using the SYBR green core kit (PE. Applied Biosystems, Foster City, Calif.; Cat. #4304886) and human ABC1 primers LF: 5′-[…] (SEQ ID NO: 11) and LR: 5′-[…] (SEQ ID NO: 12) to yield an 82 bp fragment corresponding to nucleotides 7018-7099 of human ABC1. PCR cycle conditions were as follows: 10 minutes 95° C.; followed by 40 cycles of 95° C., 15 seconds; and 60° C., 60 seconds. The mRNA in each sample was quantitated by detecting the increase in fluorescence caused by SYBR green binding to the double-stranded amplification product generated during each PCR cycle. All samples were run in triplicate and normalized against 0-actin mRNA, amplified in parallel reactions with primers actinF: 5′-[…] (SEQ ID NO: 54) and actinB: 5′-[…] […]
Mouse RAW 264.7 cells were grown to subconfluence in DMEM/10% FBS and then treated for 24 hours in serum-free DMEM/BSA with either 9-cis retinoic acid (10 μM), 20-hydroxycholesterol (10 μM), or both ligands together (20 μM total). […] RNA was extracted, treated with DNase, and ABC1 mRNA measured by RT-PCR using PE Biosystems SYBR Green Technology as described in Example 9.

[3] = tested on: ABC1 5' flanking region; experiment: Luciferase reporter constructs with portions of the ABC1 5' flanking region in RAW 264.7 cells; format: cell-based, mouse; conditions: wild-type sequence nt 1080-1643 of SEQ ID NO: 3
Method: (§1) Luciferase Assay: Following transfection, the cells in each well were lysed in 70 μl of 1× cell lysis reagent (Promega, Madison, Wis., Cat. #E3971), subjected to one freeze-thaw cycle, and the lysate cleared by centrifugation for 5 minutes at 12,000 g. After centrifugation, 100 μl of luciferase assay reagent (Promega, Madison, Wis.; Cat. #E1501) was added to 10 μl of lysate. The luciferase activity of each lysate was measured as light units using a luminometer. Additionally, the β-galactosidase activity of each lysate was measured using the chemiluminescent assay reagents supplied in the Galacto-light kit according to the manufacturer's instructions (Tropix Inc., Bedford, Mass.: Cat. #BL100G). The normalized luciferase activity for each lysate was determined by dividing the luciferase activity value by the determined 0-galactosidase value and reported as relative light units.
Construction of Reporter Constructs: Reporter construct pAPR1 and control reporter construct pGL3-Basic were obtained as described in Example 15. […]
Transfection of Reporter Constructs: The RAW 264.7 cells were maintained in culture and transfected with either pGL3-Basic (1 μg), pAPR1 (1 μg), or one of the other reporter constructs according to the method described in Example 15. […] The luciferase activity was measured and reported as relative light units as described in Example 15.

[4] = tested on: ABC1 promoter; experiment: pAPR1 luciferase reporter under control of the ABC1 promoter in RAW 264.7 cells; format: cell-based, mouse; conditions: pAPR1-transfected RAW 264.7; 10 μM each ligand (20 μM total for both), 24 hours
Text: Construction of Reporter Plasmids: Plasmid pGL3-Basic (Promega, Madison, Wis.; Cat. #E1751) was used as a control plasmid containing the promoterless luciferase gene. The reporter construct containing the ABC1 promoter and luciferase gene was made by cloning a genomic fragment from the 5′ flanking region of the ABC1 gene (hAPRI 5′ promoter, corresponding to nucleotides 1080-1643 of SEQ ID NO: 3) into the Sacd site of the GL3-Basic plasmid to generate plasmid GL-6a. Next, plasmid GL-6a was digested with SneI and Acc651. […]
as §1, with “After centrifugation, 100 μl of luciferase assay reagent (Promega, Madison, Wis.; Cat. #E1501) was added to 10 μl of lysate.” left out, “units. […]” for “units.”

[5] = tested on: ABC1 5' flanking region with mutated sterol response element; experiment: Luciferase reporter construct 1080-1643 with mutated sterol response element in RAW 264.7 cells; format: cell-based, mouse; conditions: mutated sequence nt 1080-1643, sterol response element mutated
Method: as §1
Transfection of Reporter Constructs: The RAW 264.7 cells were maintained in culture and transfected with either pGL3-Basic (1 μg), pAPR1 (1 μg), or one of the other reporter constructs according to the method described in Example 15. […] The luciferase activity was measured and reported as relative light units as described in Example 15. […]

[6] = tested on: normal fibroblasts; experiment: Apo A-I-mediated lipid efflux from normal fibroblasts with ABC1 transport inhibitors; format: cell-based, human; conditions: 0.2 or 0.4 mM, 6 hours, 5 μg/ml apo A-I
Method: To test whether inhibition of ABC1 could affect the process of apolipoprotein-mediated cholesterol efflux, two compounds reported to be ABC1 inhibitors were tested in assays which monitor apolipoprotein mediated cholesterol efflux. […] The apolipoprotein-mediated cholesterol efflux assays were performed as described in Example 1 with the noted changes.
Cholesterol-loaded and [^3H]cholesterol-labeled normal fibroblasts (n=3) were incubated for 6 hours with or without 5 μg/ml apo A-I and either 0, 0.2 mM, or 0.4 mM DIDS. In addition, cholesterol-loaded and [^3H]cholesterol-labeled normal fibroblasts (n=3) were incubated for 6 hours with or without 5 μg/ml apo A-I and either 0, 0.2 mM, or 0.4 mM BSP. […] The results are shown in FIG. 5 as the mean±SD (n=3) of efflux in the presence of apo A-I after subtraction of values for apo A-I-free medium. […] The results of these tests mimic the efflux defect in fibroblasts derived from patients with TD, described in Example 1.

[7] = tested on: ABC1; conditions: dose-dependent; Becq et al. 1997, Hamon et al. 1997; cited from earlier work
[8] = tested on: normal skin fibroblasts; experiment: Apo A-I-mediated cholesterol efflux after antisense inhibition of ABC1 mRNA; format: cell-based, human; conditions: 30 μM oligonucleotide, apo A-I-mediated efflux after 12 hours
Method: Normal skin fibroblasts were labeled with [^3H]cholesterol as described in Example 1.
The cells were then loaded with oligonucleotide by scraping in the presence of either 30 μM control. Morpholino oligonucleotide (5′-[…]-3′ corresponding to the antisense complement of a β-globin thalassemic mRNA; SEQ ID NO: 52) or […] ABC1 antisense. Morpholino oligonucleotide (5′-[…]-3′; SEQ ID NO: 53) and reseeding on new dishes. Control cells were mock-loaded after [^3H]cholesterol-labeling by scraping and reseeding in the absence of oligonucleotide. […] The results are shown in FIG. 6 as the mean±SEM of three separate experiments, normalized to the value for apo A-I-specific efflux in the absence of oligonucleotide in each experiment.

With `CCCCC[C@H](O)/C=C/[C@H]1[C@H](O)CC(=O)[C@@H]1CCCCCCC(=O)O` [PGE1, prostaglandin E1] the “increase in apoAI-induced cholesterol efflux” value [1] was ~3 fold.

In the case of `CC1=C(/C=C/C(C)=C\C=C\C(C)=C\C(=O)O)C(C)(C)CCC1` [9-cis retinoic acid], the “ABC1 mRNA expression” value [2] was “increase in ABC1 mRNA expression”, the “transcriptional response (luciferase activity)” value (“transcriptional response” below) [3] was “produced a transcriptional response” and the cholesterol efflux ([1]; 0.3 ng/ml 9-cis-RA with apo A-I) was 1522 c.p.m. The cholesterol efflux ([1]; 3.0 ng/ml 9-cis-RA with apo A-I) was 3568 c.p.m, the cholesterol efflux ([1]; 30 ng/ml 9-cis-RA with apo A-I) was 8597 c.p.m and the “increase in apoAI-induced cholesterol efflux” value [1] was ~3 fold. The “increase in luciferase reporter activity compared with EtOH control” value [4] was 16 fold.

With `CC(C)CC[C@@H](O)[C@@H](C)[C@H]1CC[C@H]2[C@@H]3CC=C4C[C@@H](O)CC[C@]4(C)[C@H]3CC[C@]12C` [22(R)-hydroxycholesterol] the “transcriptional response” value [5] was “did not produce a transcriptional response”.

For `O=C1OC(c2ccc(O)c(S(=O)(=O)O)c2)(c2ccc(O)c(S(=O)(=O)O)c2)c2c(Br)c(Br)c(Br)c(Br)c21` [BSP, sulphobromophthaleine], the “effect on apo A-I-mediated efflux of tritiated cholesterol” value [6] is listed as “inhibit” and the “anion transport activities of ABC1” value [7] is listed as “inhibit”.

For `CC(C)OC(=O)C(C)(C)Oc1ccc(C(=O)c2ccc(Cl)cc2)cc1` [fenfibrate], the “increase in apoAI-induced cholesterol efflux” value [1] was ~2 fold.

For `CCCCC[C@H](O)/C=C/[C@@H]1[C@H]2C/C(=C/CCCC(=O)O)O[C@H]2C[C@H]1O` [PGI2, prostacyclin PGI2], the “increase in apoAI-induced cholesterol efflux” value [1] was ~2 fold.

In the case of “ABC1 antisense. Morpholino oligonucleotide: Morpholino 5′-CATGTTGTTCATAGGGTGGGTAGCTC-3′; SEQ ID NO: 53, directed against ABC1 mRNA (all phosphorodiamidate morpholino (PMO))”, the “reduction in cholesterol efflux compared with control anti-sense oligonucleotide” value [8] was 50%.

In the case of `CC(C)CCC[C@](C)(O)[C@H]1CC[C@H]2[C@@H]3CC=C4C[C@@H](O)CC[C@]4(C)[C@H]3CC[C@@]21C` [20(S)-hydroxycholesterol], the “transcriptional response” value [5] was “did not produce a transcriptional response”, the “ABC1 mRNA expression” value [2] was “increase in ABC1 mRNA expression” and the “transcriptional response” value [3] was “produced a transcriptional response”.
